In the experiment the target is human FP receptor (Homo sapiens (Human), UniProt P43088). As to the kind of experiment: In vitro test of inhibition of human FP receptor activity (PGF2α-induced calcium flux in FP-expressing CHEM1 cells). It is filed as cell-based. Conditions: PGF2α-induced (3 nM) calcium flux, some as mean values from multiple independent determinations. The source says: • CRTH2 chemoattractant receptor-homologous molecule expressed on T helper type 2 cells • DMEM Dulbecco's modified Eagle's medium • DMSO dimethyl sulfoxide • DP PGD2 receptor • EC50 half-maximum effective concentration • Em emission • EP PGE2 receptor • Ex excitation • from Company (source) • FCS fetal calf serum • FP PGF2α receptor • HEPES 2-[4-(2-hydroxyethyl)piperazin-1-yl]ethanesulfonic acid • IC50 half-maximum inhibitory concentration • IP PGI2 receptor • MES 2-(N-morpholino)ethanesulfonic acid • Pen/Strep penicillin/streptomycin • PGD2 prostaglandin D2 • PGE2 prostaglandin E2 • PGF2α prostaglandin F2α • PGI2 prostaglandin I2 • TC tissue culture • TP thromboxane A2 receptor • Tris tris(hydroxymethyl)aminomethane • v/v volume to volume ratio (of a solution) • w/w weight to weight ratio (of a solution) B-1. In Vitro Test of Inhibition of Human FP Receptor Activity
Chain of human FP receptor (P43088 whole entry): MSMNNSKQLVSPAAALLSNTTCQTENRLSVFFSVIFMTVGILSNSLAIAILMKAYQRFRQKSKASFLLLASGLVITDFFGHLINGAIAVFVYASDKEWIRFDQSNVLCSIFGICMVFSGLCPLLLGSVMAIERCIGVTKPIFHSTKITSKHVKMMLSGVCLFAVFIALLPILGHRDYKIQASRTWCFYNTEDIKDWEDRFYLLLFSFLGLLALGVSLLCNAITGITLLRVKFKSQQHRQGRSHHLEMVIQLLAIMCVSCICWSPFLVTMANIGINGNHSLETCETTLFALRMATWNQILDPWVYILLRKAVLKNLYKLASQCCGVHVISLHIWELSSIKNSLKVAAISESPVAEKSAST
For the characterization of test substances in respect of FP antagonism, PGF2α-induced calcium flux in FP-expressing CHEM1 cells (Millipore, HTS093C) was used.
Prior to the measurement, the medium is replaced by 30 μl of Fluo-8 AM loading buffer [calcium-free Tyrode (130 mM NaCl, 5 mM KCl, 20 mM HEPES, 1 mM MgCl2, 4.8 mM NaHCO3, pH 7.4), 2 mM CaCl2, 1× SmartBlock (from CANDOR Bioscience GmbH), 4.5 mM Probenecid, 5 μM Fluo-8 AM, 0.016% Pluronic®, 0.04% Brilliant black] and incubated at 37° C./5% CO2 for 30 minutes. […] 10 μl of the prediluted substance solution are added to the Fluo-8-laden cells and incubated at 37° C./5% CO2 for 10 minutes. The FP receptor is activated by adding 20 μl of 3 nM (final concentration) PGF2α in calcium-free Tyrode/2 mM CaCl2/0.04% Brilliant black, and the calcium flux is determined by measuring the fluorescence at ex. 470 nm/[…].
Table 1 below lists the IC50 values from this assay for individual working examples of the invention (some as mean values from multiple independent individual determinations): […]
On the technique in general: A change in cytosolic calcium serves as a functional read-out for many receptors and channels.

On to `Cc1c(-c2ccc(Cl)s2)nc2ccc(Br)cc2c1C(=O)NC12CCC(C(=O)O)(CC1)CC2` [Example 54, 4-({[6-Bromo-2-(5-chloro-2-thienyl)-3-methylquinolin-4-yl]carbonyl}amino)bicyclo[2.2.2]octane-1-carboxylic acid], for which the IC50 came out at 240 nM.

Turning to `Cc1c(-c2ccccc2F)nc2ccc(Br)cc2c1C(=O)NC12CCC(C(=O)O)(CC1)CC2` [Example 6, 4-({[6-Bromo-2-(2-fluorophenyl)-3-methylquinolin-4-yl]carbonyl}amino)bicyclo[2.2.2]octane-1-carboxylic acid], the IC50 came to 240 nM.

Take `O=C(NC12CCC(C(=O)O)(CC1)CC2)c1c(Cl)c(-c2ccccc2)nc2ccc(I)cc12` [Example 32, 4-{[(3-Chloro-6-iodo-2-phenylquinolin-4-yl)carbonyl]amino}bicyclo[2.2.2]octane-1-carboxylic acid]: the IC50 is 22 nM.

For the molecule `CCCc1c(-c2ccccc2)nc2ccc(Br)cc2c1C(=O)NC12CCC(C(=O)O)(CC1)CC2` [Example 31, 4-{[(6-Bromo-2-phenyl-3-propylquinolin-4-yl)carbonyl]amino}bicyclo[2.2.2]octane-1-carboxylic acid], the IC50 turned out to be 351 nM.

On to `Cc1c(-c2ccccc2)nc2ccc(C3CC3)cc2c1C(=O)NC12CCC(C(=O)O)(CC1)CC2` [Example 15, 4-{[(6-Cyclopropyl-3-methyl-2-phenylquinolin-4-yl)carbonyl]amino}bicyclo[2.2.2]octane-1-carboxylic acid], for which the 50% inhibitory concentration (IC50) is 326 nM.

Turning to `Cc1c(-c2ccccc2)nc2ccc(Br)cc2c1C(=O)NC12CCC(C(=O)O)(CC1=O)CC2=O` [Example 63, 4-{[(6-Bromo-3-methyl-2-phenylquinolin-4-yl)carbonyl]amino}-3,5-dioxobicyclo [2.2.2]octane-1-carboxylic acid], the IC50 was 82 nM.

With `Cc1c(-c2ccccc2Cl)nc2ccc(Br)cc2c1C(=O)NC12CCC(C(=O)O)(CC1)CC2` [Example 10, 4-({[6-Bromo-2-(2-chlorophenyl)-3-methylquinolin-4-yl]carbonyl}amino)bicyclo[2.2.2]octane-1-carboxylic acid], the IC50 was found to be 128 nM.

As to `O=C(NC12C3C4C1C1C2C3C41C(=O)O)c1c(Cl)c(-c2ccccc2)nc2ccc(Br)cc12` (stereo not drawn) [Example 45, 4-{[(6-Bromo-3-chloro-2-phenylquinolin-4-yl)carbonyl]amino}cubane-1-carboxylic acid], the IC50 is 161 nM.

Take `Cc1c(-c2ccccc2)nc2ccc(I)cc2c1C(=O)NC12CCC(C(=O)O)(CC1)C2` [Example 38, 4-{[(6-Iodo-3-methyl-2-phenylquinolin-4-yl)carbonyl]amino}bicyclo [2.2.1]heptane-1-carboxylic acid]: the IC50 was determined as 1280 nM.

In the case of `Cc1cc2nc(-c3ccccc3)c(C)c(C(=O)NC34CCC(C(=O)O)(CC3)CC4)c2cc1C` [Example 23], the IC50 came out at 306 nM.

Take `Cc1c(-c2ccccc2)nc2ccc(Br)cc2c1C(=O)NC12CCC(C(=O)O)(CC1)C(O)C2` (racemic) [Example 59, 4-{[(6-Bromo-3-methyl-2-phenylquinolin-4-yl)carbonyl]amino}-2-hydroxybicyclo[2.2.2]octane-1-carboxylic acid (racemate)]: the IC50 worked out at 435 nM.

As to `CSc1c(-c2ccccc2)nc2ccc(Br)cc2c1C(=O)NC12CCC(C(=O)O)(CC1)CC2` [Example 27, 4-({[6-Bromo-3-(methylsulfanyl)-2-phenylquinolin-4-yl]carbonyl}amino)bicyclo[2.2.2]octane-1-carboxylic acid], the IC50 came out at 74 nM.

With `Cc1c(-c2ccccc2)nc2ccc(C(F)F)cc2c1C(=O)NC12CCC(C(=O)O)(CC1)CC2` [Example 18, 4-({[6-(Difluoromethyl)-3-methyl-2-phenylquinolin-4-yl]carbonyl}amino)bicyclo[2.2.2]octane-1-carboxylic acid], the IC50 is 543 nM.

As for `Cc1c(-c2cccs2)nc2ccc(Br)cc2c1C(=O)NC12CCC(C(=O)O)(CC1)CC2` [Example 5, 4-({[6-Bromo-3-methyl-2-(2-thienyl)quinolin-4-yl]carbonyl}amino)bicyclo[2.2.2]octane-1-carboxylic acid], the IC50 was found to be 113 nM.

`O=C(NC12CCC(C(=O)O)(CC1)CC2)c1c(C2CC2)c(-c2ccccc2)nc2ccc(I)cc12` [Example 33, 4-{[(3-Cyclopropyl-6-iodo-2-phenylquinolin-4-yl)carbonyl]amino}bicyclo[2.2.2]octane-1-carboxylic acid]: the IC50 worked out at 51 nM.

`Cc1c(-c2ccccc2)nc2cc(Cl)c(Cl)cc2c1C(=O)NC12CCC(C(=O)O)(CC1)CC2` [Example 3, 4-{[(6,7-Dichloro-3-methyl-2-phenylquinolin-4-yl)carbonyl]amino}bicyclo[2.2.2]octane-1-carboxylic acid]: the IC50 was determined as 142 nM.

`Cc1c(-c2ccccc2)nc2ccc(Cl)cc2c1C(=O)NC12CCC(C(=O)O)(CC1)CC2` [Example 2, 4-{[(6-Chloro-3-methyl-2-phenylquinolin-4-yl)carbonyl]amino}bicyclo[2.2.2]octane-1-carboxylic acid]: the IC50 amounted to 259 nM.

With `Cc1c(-c2ccccc2)nc2ccc(OC(F)(F)F)cc2c1C(=O)NC12CCC(C(=O)O)(CC1)CC2` [Example 19, 4-({[3-Methyl-2-phenyl-6-(trifluoromethoxy)quinolin-4-yl]carbonyl}amino)bicyclo[2.2.2]octane-1-carboxylic acid], the IC50 was 917 nM.

As to `Cc1c(-c2ccccc2)nc2ccc(Br)cc2c1C(=O)NC12CCC(C(=O)O)(CC1)C(F)(F)C2` [Example 58, 4-{[(6-Bromo-3-methyl-2-phenylquinolin-4-yl)carbonyl]amino}-2,2-difluorobicyclo[2.2.2]octane-1-carboxylic acid], the IC50 amounted to 668 nM.

On to `Cc1c(-c2ccccc2)nc2ccc(Br)cc2c1C(=O)NC12C3C4C1C1C2C3C41C(=O)O` (stereo not drawn) [Example 43, 4-{[(6-Bromo-3-methyl-2-phenylquinolin-4-yl)carbonyl]amino}cubane-1-carboxylic acid], for which the IC50 is 198 nM.

As to `O=C(NC12CCCC(C(=O)O)(CC1)CC2)c1c(Cl)c(-c2ccccc2)nc2ccc(Br)cc12` [Example 40, 5-{[(6-Bromo-3-chloro-2-phenylquinolin-4-yl)carbonyl]amino}bicyclo[3.2.2]nonane-1-carboxylic acid], the IC50 is 195 nM.

For the molecule `O=C(NC12CCCC(C(=O)O)(CC1)CC2)c1c(C2CC2)c(-c2ccccc2)nc2ccc(I)cc12` [Example 42, 5-{[(3-Cyclopropyl-6-iodo-2-phenylquinolin-4-yl)carbonyl]amino}bicyclo[3.2.2]nonane-1-carboxylic acid], the IC50 was found to be 33 nM.

For the molecule `Cc1c(-c2cc(F)cc(F)c2)nc2ccc(Br)cc2c1C(=O)NC12CCC(C(=O)O)(CC1)CC2` [Example 9, 4-({[6-Bromo-2-(3,5-difluorophenyl)-3-methylquinolin-4-yl]carbonyl}amino)bicyclo[2.2.2]octane-1-carboxylic acid], the IC50 turned out to be 386 nM.

`Cc1c(-c2cc(Br)cs2)nc2ccc(Br)cc2c1C(=O)NC12CCC(C(=O)O)(CC1)CC2` [Example 52, 4-({[6-Bromo-2-(4-bromo-2-thienyl)-3-methylquinolin-4-yl]carbonyl}amino)bicyclo[2.2.2]octane-1-carboxylic acid]: the IC50 stood at 58 nM.

A word on the IC50: it is the concentration at which inhibition is half-maximal.

The values are drawn from patent publication US10117864B2, “Substituted N-bicyclo-2-aryl-quinolin-4-carboxamides and use thereof” (BAYER PHARMA AKTIENGESELLSCHAFT, priority 2015, dated 2018).
